Laboratory results taken from the NIST ThermoML archive (doi:10.1016/j.tca.2005.06.043).
± gives the expanded uncertainty stated by the source.

Columns and labels:
[1] = Calculated from knudsen effusion weight loss
[2] = molar enthalpy of vaporization or sublimation; conditions: 303 K; Crystal 2; Static calorimetry

| SMILES | vapor or sublimation pressure ([1]; 288.36 K, Crystal 2) | vapor or sublimation pressure ([1]; 293.31 K, Crystal 2) | vapor or sublimation pressure ([1]; 298.28 K, Crystal 2) | vapor or sublimation pressure ([1]; 303.22 K, Crystal 2) | vapor or sublimation pressure ([1]; 308.19 K, Crystal 2) | vapor or sublimation pressure ([1]; 313.16 K, Crystal 1) | vapor or sublimation pressure ([1]; 314.21 K, Crystal 1) | vapor or sublimation pressure ([1]; 314.65 K, Crystal 1) | vapor or sublimation pressure ([1]; 315.63 K, Crystal 1) | vapor or sublimation pressure ([1]; 316.65 K, Crystal 1) | vapor or sublimation pressure ([1]; 318.12 K, Crystal 1) | vapor or sublimation pressure ([1]; 320.59 K, Crystal 1) | vapor or sublimation pressure ([1]; 323.03 K, Crystal 1) | molar enthalpy [2] | vapor or sublimation pressure ([1]; 318.02 K, Crystal) | vapor or sublimation pressure ([1]; 322.7 K, Crystal) | vapor or sublimation pressure ([1]; 322.99 K, Crystal) | vapor or sublimation pressure ([1]; 327.9 K, Crystal) | vapor or sublimation pressure ([1]; 332.6 K, Crystal) |
| --- | --- | --- | --- | --- | --- | --- | --- | --- | --- | --- | --- | --- | --- | --- | --- | --- | --- | --- | --- |
| BrC12CC3CC(CC(C3)C1)C2 [1-bromotricyclo[3.3.1.1(3,7)]decane] | 0.001603 ± 0.00015 kPa | 0.002687 ± 0.00027 kPa | 0.004279 ± 0.00045 kPa | 0.006896 ± 0.00077 kPa | 0.0111 ± 0.0013 kPa | 0.0169 ± 0.0021 kPa | 0.01766 ± 0.0022 kPa | 0.01847 ± 0.0023 kPa | 0.01952 ± 0.0025 kPa | 0.0215 ± 0.0028 kPa | 0.02411 ± 0.0032 kPa | 0.02925 ± 0.0039 kPa | 0.03472 ± 0.0048 kPa | 17.15 ± 0.151 kcal/mol | – | – | – | – | – |
| O=C(O)c1ccccc1 [benzoic acid] | – | – | – | – | – | – | – | – | – | – | – | – | – | – | 0.001022 ± 8.9e-05 kPa | 0.001693 ± 0.00016 kPa | 0.001744 ± 0.00016 kPa | 0.00289 ± 0.00029 kPa | 0.004567 ± 0.00049 kPa |
